In patent US20250163104A1, “MACROCYCLIC IMMUNOMODULATORS” (priority 2021, published 2025):
Where a SMILES comes first, the peptide text is derived from it. Bridges are numbered along the chain shown (N, C = ends). [ ]: non-standard residue; d: D form. The star is where a group is joined. Bip(4'-COOH) = N[C@@H](Cc1ccc(-c2ccc(C(=O)O)cc2)cc1)C(=O)O; Phe(3-CF3) = N[C@@H](Cc1cccc(C(F)(F)F)c1)C(=O)O; Ala(morpholin-4-yl) = N[C@@H](CN1CCOCC1)C(=O)O; Phe(4-COOH) = N[C@@H](Cc1ccc(C(=O)O)cc1)C(=O)O; Bip = N[C@@H](Cc1ccc(-c2ccccc2)cc1)C(=O)O; Phe(3-F) = N[C@@H](Cc1cccc(F)c1)C(=O)O; Phe(3-Me) = Cc1cccc(C[C@H](N)C(=O)O)c1; Val(3-OH) = CC(C)(O)[C@H](N)C(=O)O; 3Pal = N[C@@H](Cc1cccnc1)C(=O)O; Cha = N[C@@H](CC1CCCCC1)C(=O)O; Cit = NC(=O)NCCC[C@H](N)C(=O)O; Carboxymethyl = O=C(O)C*; Nle = CCCC[C@H](N)C(=O)O; Orn = NCCC[C@H](N)C(=O)O; Pra = C#CC[C@H](N)C(=O)O; Dab = NCC[C@H](N)C(=O)O; Dap = NC[C@H](N)C(=O)O; Propargyl = C#CC*

Biological target: T1, human PD-1 / PD-L1-Ig binding on Jurkat cell line over-expressing human PD-1 (Jurkat-PD-1) (Homo sapiens, UniProt Q15116)
T1 construct: expressed in transfected cells; host or cells: Jurkat
Assay: Jurkat-PD-1 Cell Binding High-Content Screening Assay (CBA)
Assay type: cell-based
Settings: Jurkat-PD-1 cells, PE-labeled PD-L1-Ig 20 nM final; read-out: Jurkat HPD1_PDL1 IC50
In short: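 Compounds were preincubated with Jurkat-hPD-1 cells in DMEM plus 10% fetal calf serum for 2 h at 37° C. Phycoerythrin-labeled PD-L1-Ig (20 nM final) was then added for 1 hour. Cells were fixed in 4% paraformaldehyde with Hoechst 33342, and bound fluorescence was quantified by high-content imaging.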

T1 sequence (Q15116 25-288): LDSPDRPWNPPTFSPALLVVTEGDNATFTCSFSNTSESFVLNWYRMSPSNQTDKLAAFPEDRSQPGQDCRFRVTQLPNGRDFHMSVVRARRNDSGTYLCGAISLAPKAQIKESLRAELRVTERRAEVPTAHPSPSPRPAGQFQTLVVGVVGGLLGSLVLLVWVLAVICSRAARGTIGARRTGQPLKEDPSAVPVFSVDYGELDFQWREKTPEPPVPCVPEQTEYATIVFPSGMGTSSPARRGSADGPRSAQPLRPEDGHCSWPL

| IC50 [nM] | SMILES |
| --- | --- |
| 43.9 | CC(C)C[C@H]1NC(=O)[C@H](CCCN)NC(=O)[C@H](Cc2ccc(C(=O)O)cc2)NC(=O)[C@H](Cc2ccc(-c3ccccc3)cc2)NC(=O)[C@H](Cc2ccc(C(=O)O)cc2)NC(=O)[C@H](Cc2cccc(C(F)(F)F)c2)NC(=O)[C@H](CC(N)=O)NC(=O)[C@H](Cc2ccc(C(=O)O)cc2)NC(=O)[C@H](CN2CCOCC2)NC(=O)CSC[C@@H](C(=O)N[C@@H](CCN)C(N)=O)NC(=O)[C@H](CO)NC(=O)[C@H](C(C)(C)O)NC(=O)[C@H](CC2CCCCC2)NC(=O)[C@H](CCN)NC1=O [Example 2719] ({CH2CO}-[Ala(morpholin-4-yl)][Phe(4-COOH)]N[Phe(3-CF3)][Phe(4-COOH)][Bip][Phe(4-COOH)][Orn][dL][Dab][Cha][Val(3-OH)]SC[Dab]-NH2; thioether N-14) |
| 2.2 | CC(C)C[C@H]1NC(=O)[C@H](CCCN)NC(=O)[C@H](Cc2ccc(C(=O)O)cc2)NC(=O)[C@H](Cc2ccc(-c3ccccc3)cc2)NC(=O)[C@H](Cc2ccc(-c3ccc(C(=O)O)cc3)cc2)NC(=O)[C@H](Cc2cccc(C(F)(F)F)c2)NC(=O)[C@H](CC(=O)O)NC(=O)[C@H](Cc2ccc(C(=O)O)cc2)NC(=O)[C@H](CN2CCOCC2)NC(=O)CSC[C@@H](C(=O)N[C@@H](CCN)C(N)=O)NC(=O)[C@H](CCC(=O)O)NC(=O)[C@H](C(C)C)NC(=O)[C@H](CC2CCCCC2)NC(=O)[C@H](CCN)NC1=O [Example 2735] ({CH2CO}-[Ala(morpholin-4-yl)][Phe(4-COOH)]D[Phe(3-CF3)][Bip(4'-COOH)][Bip][Phe(4-COOH)][Orn][dL][Dab][Cha]VEC[Dab]-NH2; thioether N-14) |
| 20.9 | CC(C)C[C@H]1NC(=O)[C@H](CCCN)NC(=O)[C@H](CCCNC(N)=O)NC(=O)[C@H](Cc2ccc(-c3ccccc3)cc2)NC(=O)[C@H](C(C)C)NC(=O)[C@H](Cc2c[nH]c3ccccc23)NC(=O)[C@H](CC(=O)O)NC(=O)[C@H](Cc2ccc(C(=O)O)cc2)NC(=O)[C@H](Cc2ccc(OCC(=O)O)cc2)NC(=O)CSC[C@@H](C(=O)N[C@@H](C)C(N)=O)NC(=O)[C@H]([C@@H](C)O)NC(=O)[C@H](C(C)C)NC(=O)[C@H](Cc2cccc(F)c2)NC(=O)[C@H](CCN)NC1=O [Compound 1675] ({CH2CO}-Y(Carboxymethyl)[Phe(4-COOH)]DWV[Bip][Cit][Orn][dL][Dab][Phe(3-F)]VTCA-NH2; thioether N-14) |
| 6.9 | C#CCOc1ccc(C[C@@H]2NC(=O)[C@H](Cc3ccc(-c4ccccc4)cc3)NC(=O)[C@H](Cc3ccc(C(=O)O)cc3)NC(=O)[C@H](Cc3cccc(C)c3)NC(=O)[C@H](CC(=O)O)NC(=O)[C@H](Cc3ccc(C(=O)O)cc3)NC(=O)[C@H]([C@@H](C)O)NC(=O)CSC[C@@H](C(=O)N[C@@H](CCN)C(N)=O)NC(=O)[C@H](CCC(=O)O)NC(=O)[C@H](C(C)C)NC(=O)[C@H](CC3CCCCC3)NC(=O)[C@H](CCN)NC(=O)[C@@H](CC(C)C)NC(=O)[C@H](CCCN)NC2=O)cc1 [Compound 1828] ({CH2CO}-T[Phe(4-COOH)]D[Phe(3-Me)][Phe(4-COOH)][Bip]Y(Propargyl)[Orn][dL][Dab][Cha]VEC[Dab]-NH2; thioether N-14) |
| 38 | CCC(C)[C@@H]1NC(=O)[C@H](Cc2ccc(-c3ccccc3)cc2)NC(=O)[C@H](C(C)C)NC(=O)[C@H](Cc2cccc(C)c2)NC(=O)[C@H](CC(=O)O)NC(=O)[C@H](Cc2ccc(OCC(=O)O)cc2)NC(=O)[C@H](Cc2ccncc2)NC(=O)CSC[C@@H](C(=O)N[C@@H](C)C(N)=O)NC(=O)[C@H](CO)NC(=O)[C@H](C(C)C)NC(=O)[C@H](CC2CCCCC2)NC(=O)[C@H](CCN)NC(=O)[C@@H](CC(C)C)NC(=O)[C@H](CCCN)NC1=O (stereo partly shown) [Compound 2535] |
| 23.7 | CC(C)C[C@H]1NC(=O)[C@H](CCCN)NC(=O)[C@H](CCC(=O)O)NC(=O)[C@H](Cc2ccc(-c3ccccc3)cc2)NC(=O)[C@H](C(C)C)NC(=O)[C@H](Cc2c[nH]c3ccccc23)NC(=O)[C@H](CC(=O)O)NC(=O)[C@H](Cc2cccnc2)NC(=O)[C@H](CN)NC(=O)CSC[C@@H](C(=O)N[C@@H](C)C(N)=O)NC(=O)[C@H]([C@@H](C)O)NC(=O)[C@H](C(C)C)NC(=O)[C@H](CC2CCCCC2)NC(=O)[C@H](CCN)NC1=O [Compound 2172] ({CH2CO}-[Dap][3Pal]DWV[Bip]E[Orn][dL][Dab][Cha]VTCA-NH2; thioether N-14) |
| 7.8 | C#CC[C@H](NC(=O)[C@H](CCN)NC(=O)[C@@H]1CSCC(=O)N[C@@H](CCN)C(=O)N[C@@H](Cc2ccc(C(=O)O)cc2)C(=O)N[C@@H](CC(=O)O)C(=O)N[C@@H](Cc2cccc(C)c2)C(=O)N[C@@H](Cc2ccc(C(=O)O)cc2)C(=O)N[C@@H](Cc2ccc(-c3ccccc3)cc2)C(=O)N[C@@H](Cc2ccc(C(=O)O)cc2)C(=O)N[C@@H](CCCN)C(=O)N[C@H](CC(C)C)C(=O)N[C@@H](CCN)C(=O)N[C@@H](CC2CCCCC2)C(=O)N[C@@H](C(C)(C)O)C(=O)N[C@@H](Cc2cnc[nH]2)C(=O)N1)C(N)=O [Compound 1849] ({CH2CO}-[Dab][Phe(4-COOH)]D[Phe(3-Me)][Phe(4-COOH)][Bip][Phe(4-COOH)][Orn][dL][Dab][Cha][Val(3-OH)]HC[Dab][Pra]-NH2; thioether N-14) |
| 19.1 | CC(C)C[C@H]1NC(=O)[C@H](CCCN)NC(=O)[C@H](CCN)NC(=O)[C@H](Cc2ccc(-c3ccccc3)cc2)NC(=O)[C@H](C(C)C)NC(=O)[C@H](Cc2c[nH]c3ccccc23)NC(=O)[C@H](CC(=O)O)NC(=O)[C@H](Cc2ccc(C(=O)O)cc2)NC(=O)[C@H](Cc2ccc(OCC(=O)O)cc2)NC(=O)CSC[C@@H](C(=O)N[C@@H](C)C(N)=O)NC(=O)[C@H]([C@@H](C)O)NC(=O)[C@H](C(C)C)NC(=O)[C@H](CC2CCCCC2)NC(=O)[C@H](CCN)NC1=O [Compound 1383] |
| 6.9 | C#CC[C@H](NC(=O)[C@H](CCN)NC(=O)[C@@H]1CSCC(=O)N[C@@H](CCCN)C(=O)N[C@@H](Cc2ccc(OCC(=O)O)cc2)C(=O)N[C@@H](CC(=O)O)C(=O)N[C@@H](Cc2cccc(C)c2)C(=O)N[C@@H](Cc2ccc(OCC(=O)O)cc2)C(=O)N[C@@H](Cc2ccc(-c3ccccc3)cc2)C(=O)N[C@@H](Cc2ccc(OCC(=O)O)cc2)C(=O)N[C@@H](CCCN)C(=O)N[C@H](CC(C)C)C(=O)N[C@@H](CCN)C(=O)N[C@@H](CC2CCCCC2)C(=O)N[C@@H](C(C)(C)O)C(=O)N[C@@H](CO)C(=O)N1)C(N)=O [Compound 1853] ({CH2CO}-[Orn]Y(Carboxymethyl)D[Phe(3-Me)]Y(Carboxymethyl)[Bip]Y(Carboxymethyl)[Orn][dL][Dab][Cha][Val(3-OH)]SC[Dab][Pra]-NH2; thioether N-14) |
| 1.5 | C#CCOc1ccc(C[C@@H]2NC(=O)[C@H](Cc3cccc(C)c3)NC(=O)[C@H](CC(=O)O)NC(=O)[C@H](Cc3ccc(OCC(=O)O)cc3)NC(=O)[C@H](CCCC)NC(=O)CSC[C@@H](C(=O)N[C@@H](CCN)C(N)=O)NC(=O)[C@H](CCC(=O)O)NC(=O)[C@H](C(C)C)NC(=O)[C@H](CC3CCCCC3)NC(=O)[C@H](CCN)NC(=O)[C@@H](CC(C)C)NC(=O)[C@H](CCCN)NC(=O)[C@H](Cc3ccc(OCC(=O)O)cc3)NC(=O)[C@H](Cc3ccc(-c4ccccc4)cc3)NC2=O)cc1 [Compound 1833] ({CH2CO}-[Nle]Y(Carboxymethyl)D[Phe(3-Me)]Y(Propargyl)[Bip]Y(Carboxymethyl)[Orn][dL][Dab][Cha]VEC[Dab]-NH2; thioether N-14) |
